Read-outs that look alike come from different tables or passages of the source.
How the values were obtained:
SHP2 [1] = molecular target: T1, SHP2 (Homo sapiens, UniProt Q06124); assay: biochemical; conditions: read-out: SHP2 inhibition (%)@0.1 μM
T1 sequence (Q06124 1-593): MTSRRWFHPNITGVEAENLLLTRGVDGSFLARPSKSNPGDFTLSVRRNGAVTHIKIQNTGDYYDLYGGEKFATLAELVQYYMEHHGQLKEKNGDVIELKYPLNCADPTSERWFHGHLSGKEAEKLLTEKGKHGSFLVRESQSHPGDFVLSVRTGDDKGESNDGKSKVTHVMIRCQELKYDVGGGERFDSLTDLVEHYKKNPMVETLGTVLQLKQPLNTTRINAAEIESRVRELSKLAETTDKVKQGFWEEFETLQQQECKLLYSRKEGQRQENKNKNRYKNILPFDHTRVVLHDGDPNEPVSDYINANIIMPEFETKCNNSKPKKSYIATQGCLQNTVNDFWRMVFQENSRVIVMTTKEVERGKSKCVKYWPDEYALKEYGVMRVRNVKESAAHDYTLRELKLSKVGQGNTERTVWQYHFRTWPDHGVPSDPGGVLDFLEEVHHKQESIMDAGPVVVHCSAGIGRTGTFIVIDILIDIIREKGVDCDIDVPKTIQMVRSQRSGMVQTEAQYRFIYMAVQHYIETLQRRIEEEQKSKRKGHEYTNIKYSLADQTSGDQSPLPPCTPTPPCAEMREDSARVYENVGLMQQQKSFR

SHP2 [2] = molecular target: T1, SHP2; assay: Phosphatase assays (IC50), DiFMUP substrate
MV-4-11 = assay: Cell proliferation assay (MTS/PMS); type: cell-based; conditions: Homo sapiens, MV4-11
[3] = SHP2 0.5 nM activated with dPEG8 peptide, DiFMUP 12 μM, 30 min
[4] = MV-4-11 cell proliferation, MTS/PMS readout at day 8, compounds added 24 hours after plating, read-out: IC50

SMILES	inhibition at 0.1 µM (SHP2 [1]) [%]	IC50 (SHP2 [2]; [3]) [nM]	IC50 (MV-4-11) [nM]	IC50 (SHP2 [2]) [nM]	IC50 (MV-4-11; [4]) [nM]
Nc1nc(N2CCC3(CC2)c2ccccc2C[C@H]3N)cnc1Sc1ccnc(N)c1Cl [Example 1, (R)-1′-(6-amino-5-((2-amino-3-chloropyridin-4-yl)thio)pyrazin-2-yl)-2,3-dihydrospiro[indene-1,4′-piperidin]-2-amine]	87	8	–	–	–
Nc1nc(N2CCC3(CC2)Cc2ccccc2[C@H]3N)cnc1Sc1ccnc(N)c1Cl [Example 2, (S)-1′-(6-amino-5-((2-amino-3-chloropyridin-4-yl)thio)pyrazin-2-yl)-1,3-dihydrospiro[indene-2,4′-piperidin]-1-amine]	75	4	2.7	–	–
COc1ccc2c(c1)[C@@H](N)C1(CCN(c3cnc(Sc4ccnc(N)c4Cl)c(N)n3)CC1)C2 [Example 5, (S)-1′-(6-amino-5-((2-amino-3-chloropyridin-4-yl)thio)pyrazin-2-yl)-6-methoxy-1,3-dihydro spiro[indene-2,4′-piperidin]-1-amine]	84	–	4.8	6	–
CC(=O)N1CC(F)(F)c2c(Sc3ncc(N4CCC5(CC4)CC4CC4[C@H]5N)nc3N)cccc21 (stereo partly drawn) [Example 7, 1-(4-((3-amino-5-((2R)-2-aminospiro [bicyclo[3.1.0]hexane-3,4′-piperidin]-1′-yl)pyrazin-2-yl)thio)-3,3-difluoro-indolin-1-yl)ethan-1-one]	81	–	–	22	–
Nc1nc(N2CCC3(CC2)Cc2ncccc2[C@H]3N)cnc1Sc1ccnc(N)c1Cl [Example 10, (S)-1′-(6-amino-5-((2-amino-3-chloropyridin-4-yl)thio)pyrazin-2-yl)-5,7-dihydrospiro [cyclopenta[b]pyridine-6,4′-piperidin]-5-amine]	–	–	–	7	4
Nc1nc(N2CCC3(CC2)Cc2nc(Cl)ccc2[C@H]3N)cnc1Sc1ccnc(N)c1Cl [Example 19, (S)-1′-(6-amino-5-((2-amino-3-chloropyridin-4-yl)thio)pyrazin-2-yl)-2-chloro-5,7-dihydrospiro[cyclopenta [b]pyridine-6,4′-piperidin]-5-amine]	86	–	–	7	–
Nc1nc(N2CCC3(CC2)Cc2sc(Cl)nc2[C@H]3N)cnc1Sc1ccnc(N)c1Cl [Example 44, (S)-1′-(6-amino-5-((2-amino-3-chloropyridin-4-yl)thio)pyrazin-2-yl)-2-chloro-4,6-dihydro-spiro[cyclopenta[d]thiazole-5,4′-piperidin]-4-amine]	88	–	–	4	7.4
Nc1nc(N2CCC3(CC2)CC2CC2[C@H]3N)cnc1Sc1ccnc(N)c1Cl (stereo partly drawn) [Example 81, (2R)-1′-(6-amino-5-((2-amino-3-chloropyridin-4-yl)thio)pyrazin-2-yl)spiro [bicyclo[3.1.0]hexane-3,4′-piperidin]-2-amine]	75	–	–	8	–
Nc1nc(N2CCC3(CC2)Cc2ncccc2[C@H]3N)cnc1Sc1cccc(Cl)c1Cl [Example 84, (S)-1′-(6-amino-5-((2,3-dichloro-phenyl)thio)pyrazin-2-yl)-5,7-dihydrospiro[cyclopenta [b]pyridine-6, 4′-piperidin]-5-amine]	–	–	–	3	–
CN(C)c1nccc(Sc2cnc(N3CCC4(CC3)Cc3ncccc3[C@H]4N)cn2)c1Cl [Example 85, (S)-1′-(5-((3-chloro-2-(dimethyl-amino)pyridin-4-yl)thio)pyrazin-2-yl)-5,7-dihydrospiro [cyclopenta [b]pyridine-6,4′-piperidin]-5-amine]	–	–	–	6	–
N[C@@H]1c2cccnc2CC12CCN(c1cnc(Sc3ccncc3)cn1)CC2 [Example 86, (S)-1′-(5-(pyridin-4-ylthio)pyrazin-2-yl)-5,7-dihydrospiro [cyclopenta [b]pyridine-6,4′-piperidin]-5-amine]	–	–	–	14	–
Nc1nc(N2CCC3(CC2)Cc2ncccc2[C@H]3N)cnc1Sc1ccncc1F [Example 87, (S)-1′-(6-amino-5-((3-fluoropyridin-4-yl)thio)pyrazin-2-yl)-5,7-dihydrospiro[cyclopenta [b]pyridine-6,4′-piperidin]-5-amine]	–	–	–	9	–
Nc1nc(N2CCC3(CC2)Cc2scnc2[C@H]3N)cnc1Sc1ccncc1F [Example 88, (S)-1′-(6-amino-5-((3-fluoropyridin-4-yl)thio)pyrazin-2-yl)-4,6-dihydrospiro[cyclopenta [d]thiazole-5,4′-piperidin]-4-amine]	–	–	–	36	–
Nc1nccc(Sc2cnc(N3CCC4(CC3)Cc3sc(Cl)nc3[C@H]4N)cn2)c1Cl [Example 95, (S)-1′-(5-((2-amino-3-chloropyridin-4-yl)thio)pyrazin-2-yl)-2-chloro-4,6-dihydrospiro [cyclopenta[d]thiazole-5,4′-piperidin]-4-amine]	73	–	–	–	10
COc1nccc(Sc2cnc(N3CCC4(CC3)Cc3ncccc3[C@H]4N)cn2)c1Cl [Example 99, (S)-1′-(5-((3-chloro-2-methoxy-pyridin-4-yl)thio)pyrazin-2-yl)-5,7-dihydrospiro [cyclopenta[b]pyridine-6,4′-piperidin]-5-amine]	89	–	–	–	18
COc1nccc(Sc2ncc(N3CCC4(CC3)Cc3ncccc3[C@H]4N)nc2N)c1Cl [Example 100, (S)-1′-(6-amino-5-((3-chloro-2-methoxypyridin-4-yl)thio)pyrazin-2-yl)-5,7-dihydro-spiro[cyclopenta [b]pyridine-6,4′-piperidin]-5-amine]	88	–	–	–	30
N[C@@H]1c2cccnc2CC12CCN(c1cnc(Sc3ccnc(Cl)c3Cl)cn1)CC2 [Example 104, (S)-1′-(5-((2,3-dichloropyridin-4-yl)thio)pyrazin-2-yl)-5,7-dihydrospiro [cyclopenta [b]pyridine-6,4′-piperidin]-5-amine]	87	–	–	–	9
Nc1cc(Sc2cnc(N3CCC4(CC3)Cc3ncccc3[C@H]4N)cn2)c(Cl)cn1 [Example 112, (S)-1′-(5-((2-amino-5-chloro-pyridin-4-yl)thio)pyrazin-2-yl)-5,7-dihydrospiro [cyclopenta [b]pyridine-6,4′-piperidin]-5-amine]	87	–	–	–	30
Nc1nc(N2CCC3(CC2)Cc2ncccc2C3N)cnc1Sc1ccnc(N)c1Cl (stereo not shown) [Example 121, 1′-(6-amino-5-((2-amino-3-chloropyridin-4-yl)thio)pyrazin-2-yl)-5,7-dihydrospiro [cyclopenta[b]pyridine-6,4′-piperidin]-5-amine]	–	–	–	56	–
Nc1nc(N2CCC3(CC2)Cc2ccc(O)cc2[C@H]3N)cnc1Sc1ccnc(N)c1Cl [Example 137, (S)-1-amino-1′-(6-amino-5-((2-amino-3-chloropyridin-4-yl)thio)pyrazin-2-yl)-1,3-dihydrospiro[indene-2,4′-piperidin]-6-ol]	89	–	–	–	3.3
N=C1c2cscc2CC12CCN(c1cnc(Sc3ccnc(N)c3Cl)c(N)n1)CC2 [Example 146, 3-((2-amino-3-chloropyridin-4-yl)thio)-6-(4-imino-4H,6H-spiro [cyclopenta[c]thiophene-5,4′-piperidin]-1′-yl)pyrazin-2-amine]	82	–	–	12	–
Nc1nccc(Sc2cnc(N3CCC4(CC3)Cc3scnc3[C@H]4N)cn2)c1Cl [Example 152, (S)-1′-(5-((2-amino-3-chloropyridin-4-yl)thio)pyrazin-2-yl)-4,6-dihydrospiro[cyclopenta[d]thiazole-5,4′-piperidin]-4-amine]	–	–	–	3	–
Nc1nc(N2CCC3(CC2)Cc2ncsc2[C@H]3N)cnc1Sc1ccnc(N)c1Cl [Example 155, (S)-1′-(6-amino-5-((2-amino-3-chloropyridin-4-yl)thio)pyrazin-2-yl)-4,6-dihydrospiro[cyclopenta[d]thiazole-5,4′-piperidin]-6-amine]	–	–	–	3	–
Nc1nccc(Sc2cnc(N3CCC4(CC3)Cc3ncsc3[C@H]4N)cn2)c1Cl [Example 156, (S)-1′-(5-((2-amino-3-chloropyridin-4-yl)thio)pyrazin-2-yl)-4,6-dihydrospiro[cyclopenta[d]thiazole-5,4′-piperidin]-6-amine]	80	–	–	–	46.1
